Reference: US8530461B2 (Boehringer Ingelheim International GmbH, priority 2011, dated 2013)

Target: T1, human ACC2 (Homo sapiens, UniProt O00763)
T1 construct: made in house; host or cells: insect cells (baculoviral expression system)
Test: ACC2 assay, spectrophotometric 384 well assay (NADH-linked, coupled lactate dehydrogenase/pyruvate kinase)
Type: biochemical
Conditions: ACC2 assay; human ACC2 construct lacking 128 N-terminal amino acids; 25° C., 340 nm, 15 minutes; read-out: IC50
Procedure: Spectrophotometric 384 Well Assay
Malonyl CoA formation by acetyl CoA carboxylases is stoichometrically linked to the consumption of ATP. ACC2 activity is measured in a NADH-linked kinetic method measuring ADP generated during the ACC reaction using a coupled lactate dehydrogenase/pyruvate kinase reaction.
For biological testing, a human ACC2 construct which lacks the 128 amino acids at the N-terminus for increased solubility (nt 385-6966 in Genbank entry AJ575592) is cloned. The protein is then expressed in insect cells using a baculoviral expression system. Protein purification is performed by anion exchange.
All compounds are dissolved in dimethyl sulfoxide (DMSO) to a concentration of 10 mM.
Assay reactions are then carried out in 384-well plates, with hACC2 in an appropriate dilution and at final assay concentrations (f.c.) of 100 mM Tris (pH 7.5), 10 mM trisodium citrate, 25 mM KHCO3, 10 mM MgCl2, 0.5 mg/ml BSA, 3.75 mM reduced L-glutathione, 15 U/ml lactate dehydrogenase, 0.5 mM phosphoenolpyruvate, 15 U/ml pyruvate kinase, compounds at different concentrations at final DMSO concentrations of 1%.
The enzymatic reaction is then started by addition of a mixture of NADH, acetyl Coenzyme A (both […].) and ATP (500 uM f.c.). The decrease of the optical density (slope S) is then determined at 25° C. at a wavelength of 340 nm over 15 minutes in a spectrophotometric reader.
Each assay microtiter plate contains wells with vehicle instead of compound as controls for the non-inhibited enzyme (100% CTL; ‘HIGH’) and wells without acetyl-CoA as controls for non-specific NADH degradation (0% CTL; ‘LOW’).
The slope S is used for calculation of % CTL=(S(compound)−S(‘LOW’))/(S(‘HIGH’)−S(‘LOW’))100. Compounds will give values between 100% CTL (no inhibition) and 0% CTL (complete inhibition).
For IC50 value determination, the sample slope in the presence of the test compound after subtraction of the low controls (S(compound)−S(‘LOW’)) are used.
An IC50 value is derived from the compound slopes at different dosages after subtraction of the low controls (S(compound)−S(‘LOW’)) by non-linear regression curve fitting (equation y=(A+((B−A)/(1+((C/x)^D))))).

T1 sequence (O00763 129-2458 limits assumed): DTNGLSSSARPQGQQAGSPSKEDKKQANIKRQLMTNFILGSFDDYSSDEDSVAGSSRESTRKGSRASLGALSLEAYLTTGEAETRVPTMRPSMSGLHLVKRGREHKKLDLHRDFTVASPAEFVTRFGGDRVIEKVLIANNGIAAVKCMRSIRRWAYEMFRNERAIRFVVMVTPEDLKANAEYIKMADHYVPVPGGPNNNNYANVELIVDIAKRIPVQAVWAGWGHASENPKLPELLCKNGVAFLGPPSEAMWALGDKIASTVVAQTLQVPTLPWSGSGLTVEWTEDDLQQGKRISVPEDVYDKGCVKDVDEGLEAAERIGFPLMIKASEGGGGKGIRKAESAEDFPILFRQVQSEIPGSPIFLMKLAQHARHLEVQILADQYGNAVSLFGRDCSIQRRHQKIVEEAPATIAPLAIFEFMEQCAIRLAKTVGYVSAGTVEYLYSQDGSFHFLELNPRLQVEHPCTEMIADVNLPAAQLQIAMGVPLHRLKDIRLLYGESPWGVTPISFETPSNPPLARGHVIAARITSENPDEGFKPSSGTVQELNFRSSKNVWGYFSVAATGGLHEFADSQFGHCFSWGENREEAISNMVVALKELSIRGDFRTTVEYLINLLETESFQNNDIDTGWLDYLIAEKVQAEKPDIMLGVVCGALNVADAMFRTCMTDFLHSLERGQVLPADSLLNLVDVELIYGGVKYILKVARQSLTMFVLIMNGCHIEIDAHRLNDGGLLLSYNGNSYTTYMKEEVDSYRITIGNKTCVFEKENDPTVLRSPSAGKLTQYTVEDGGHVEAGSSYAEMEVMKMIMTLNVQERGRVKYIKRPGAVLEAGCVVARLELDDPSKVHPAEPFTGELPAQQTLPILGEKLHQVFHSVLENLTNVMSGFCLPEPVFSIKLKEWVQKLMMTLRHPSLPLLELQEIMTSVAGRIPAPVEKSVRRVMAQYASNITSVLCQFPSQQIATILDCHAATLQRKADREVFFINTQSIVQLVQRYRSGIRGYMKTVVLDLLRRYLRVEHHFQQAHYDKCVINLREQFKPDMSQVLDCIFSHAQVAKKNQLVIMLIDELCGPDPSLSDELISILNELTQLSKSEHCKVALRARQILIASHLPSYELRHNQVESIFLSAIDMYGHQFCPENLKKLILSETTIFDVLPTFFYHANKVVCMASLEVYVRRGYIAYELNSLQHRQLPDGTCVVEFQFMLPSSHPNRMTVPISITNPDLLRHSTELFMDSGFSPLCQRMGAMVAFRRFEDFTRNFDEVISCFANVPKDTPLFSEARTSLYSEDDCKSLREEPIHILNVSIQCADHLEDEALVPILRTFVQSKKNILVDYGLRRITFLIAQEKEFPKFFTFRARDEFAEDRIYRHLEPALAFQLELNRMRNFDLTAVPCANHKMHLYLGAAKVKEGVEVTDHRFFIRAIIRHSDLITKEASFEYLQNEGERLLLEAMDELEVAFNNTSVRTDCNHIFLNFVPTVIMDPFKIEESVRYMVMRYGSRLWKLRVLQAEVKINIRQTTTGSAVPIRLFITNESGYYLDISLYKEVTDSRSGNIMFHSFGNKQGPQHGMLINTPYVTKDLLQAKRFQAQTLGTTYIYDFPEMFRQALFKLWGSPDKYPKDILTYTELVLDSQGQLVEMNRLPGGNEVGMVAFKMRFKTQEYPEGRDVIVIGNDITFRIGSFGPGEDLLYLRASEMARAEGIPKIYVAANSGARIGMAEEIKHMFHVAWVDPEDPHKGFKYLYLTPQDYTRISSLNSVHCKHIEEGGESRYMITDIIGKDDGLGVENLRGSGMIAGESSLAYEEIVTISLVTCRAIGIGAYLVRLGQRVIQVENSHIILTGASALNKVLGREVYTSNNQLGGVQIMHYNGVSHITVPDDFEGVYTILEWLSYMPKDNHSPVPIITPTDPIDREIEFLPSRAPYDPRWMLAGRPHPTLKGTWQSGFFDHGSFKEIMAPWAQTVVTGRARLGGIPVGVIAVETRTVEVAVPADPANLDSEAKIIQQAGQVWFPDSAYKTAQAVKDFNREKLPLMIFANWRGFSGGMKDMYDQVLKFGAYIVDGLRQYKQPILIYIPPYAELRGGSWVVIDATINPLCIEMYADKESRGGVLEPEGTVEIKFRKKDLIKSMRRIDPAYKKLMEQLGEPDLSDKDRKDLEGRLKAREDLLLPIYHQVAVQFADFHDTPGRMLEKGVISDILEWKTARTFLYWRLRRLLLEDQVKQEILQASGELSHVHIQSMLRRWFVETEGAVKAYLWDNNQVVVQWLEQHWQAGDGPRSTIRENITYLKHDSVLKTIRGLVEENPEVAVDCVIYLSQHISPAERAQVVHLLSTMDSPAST

Structure (SMILES) | IC50 [nM]
C[C@H](NC(=O)C1CC1)c1ccc(N2CC(Oc3ccc(OC(C)(C)C)cc3)C2)cc1 [Example 10.22] | 1270
C[C@H](NC(=O)C1CC1)c1ccc(N2CC(Oc3ccc4c(c3)OCO4)C2)cc1 [Example 10.28] | 2080
CCOc1ccc(OC2CN(c3ccc([C@H](C)NC(=O)C(C)(C)C#N)cc3)C2)cc1 [Example 1.68] | 1520
CCOc1ccc(OC2CN(c3ccc([C@H](C)NC(=O)CC#N)cc3)C2)cc1 [Example 1.83] | 590
CCOc1ccc(OC2CN(c3ccc([C@H](C)NC(=O)C(F)(F)F)cc3)C2)cc1 [Example 3.1, (S)—N-(1-{4-[3-(4-Ethoxy-phenoxy)-azetidin-1-yl]-phenyl}-ethyl)-2,2,2-trifluoro-acetamide] | 60
COc1cccc(OC2CN(c3ccc([C@H](C)NC(C)=O)cc3)C2)n1 [Example 14.1, (S)—N-(1-{4-[3-(6-Methoxy-pyridin-2-yloxy)-azetidin-1-yl]-phenyl}-ethyl)-acetamide] | 380
CCOc1ccc(OC2CN(c3ccc([C@H](C)NC(=O)c4c[nH]cn4)cc3)C2)cc1 [Example 1.29] | 1160
CCOc1ccc(OC2CN(c3ccc([C@H](C)NC(=O)c4ccnn4C)cc3)C2)cc1 [Example 2.2] | 790
CC(=O)N[C@@H](C)c1ccc(N2CC(Oc3cccc(N(C)C)n3)C2)cc1 [Example 12.6] | 90
CCOc1ccc(OC2CN(c3ccc([C@H](C)NC(=O)N(C)CC4CC4)cc3)C2)cc1 [Example 4.5] | 5570
CCOc1ccc(OC2CN(c3ccc([C@H](C)NC(=O)C4(C)COC4)cc3)C2)cc1 [Example 1.23] | 1470
CC(=O)N[C@@H](C)c1ccc(N2CC(Oc3cccc(C(F)(F)F)n3)C2)cc1 [Example 14.2] | 60
COc1ccc(OC2CN(c3ccc([C@H](C)NC(=O)C4CC4)cc3)C2)cn1 [Example 10.25] | 3370
CC(=O)N[C@@H](C)c1ccc(N2CC(Oc3ccccc3C)C2)cc1 [Example 10.15] | 950
CCCOc1cccc(OC2CN(c3ccc([C@H](C)NC(C)=O)cc3)C2)n1 [Example 12.3] | 730
CCOc1ccc(OC2CN(c3ccc([C@H](C)NC(=O)C4(O)CC4)cc3)C2)cc1 [Example 1.10] | 3190
C[C@H](NC(=O)C1(C)CC1)c1ccc(N2CC(Oc3ccc(OCC4CC4)cc3)C2)cc1 [Example 1.89] | 120
CCOc1ccc(OC2CN(c3ccc([C@H](C)NC(C)=O)cc3)C2)c(F)c1 [Example 7.1, (S)—N-(1-{4-[3-(4-Ethoxy-2-fluoro-phenoxy)-azetidin-1-yl]-phenyl}-ethyl)-acetamide] | 120
CCOc1ccc(OC2CN(c3ccc([C@H](C)NC(=O)C4(C(F)(F)F)CC4)cc3)C2)cc1 [Example 1.74] | 410
CCOc1ccc(OC2CN(c3ccc([C@H](C)NC(=O)N(CC#N)C4CC4)cc3)C2)cc1 [Example 4.12] | 1610

Structure (SMILES) | IC50 [nM]
CCOc1ccc(OC2CN(c3ccc([C@H](C)NC(=O)C(C)(C)OC)cc3)C2)cc1 [Example 1.40] | 6430
CCOc1ccc(OC2CN(c3ccc([C@H](C)NC(=O)c4coc(NC(C)=O)n4)cc3)C2)cc1 [Example 1.72] | 1190
CCOc1ccc(OC2CN(c3ccc([C@H](C)NC(=O)c4sc(NC(C)=O)nc4C)cc3)C2)c(F)c1 [Example 8.4, (S)-2-Acetylamino-4-methyl-thiazole-5-carboxylic acid (1-{4-[3-(4-ethoxy-2-fluoro-phenoxy)-azetidin-1-yl]-phenyl}-ethyl)-amide] | 110
CC(=O)N[C@@H](C)c1ccc(N2CC(Oc3cccc(C(F)F)n3)C2)cc1 [Example 12.12] | 100
CCOc1ccc(OC2CN(c3ccc([C@H](C)NC(=O)c4cn[nH]c4)cc3)C2)cc1 [Example 1.11] | 210
CCOc1ccc(OC2CN(c3ccc([C@H](C)NC(=O)c4cnc(NC)nc4)cc3)C2)cc1 [Example 1.58] | 3900
CCOc1ccc(OC2CN(c3ccc([C@H](C)NC(=O)c4cn[nH]c4)cc3)C2)c(F)c1 [Example 8.2, (S)-1H-Pyrazole-4-carboxylic acid (1-{4-[3-(4-ethoxy-2-fluoro-phenoxy)-azetidin-1-yl]-phenyl}-ethyl)-amide] | 2980
CCOc1ccc(OC2CN(c3ccc([C@H](C)NC(=O)C(C)C)cc3)C2)cc1 [Example 1.5] | 120
CCOc1ccc(OC2CN(c3ccc([C@H](C)NC(=O)CCC#N)cc3)C2)cc1 [Example 1.80] | 1060
CCOc1ccc(OC2CN(c3ccc([C@H](C)NC(=O)c4oc(C)nc4C)cc3)C2)cc1 [Example 1.39] | 2250
CCOc1ccc(OC2CN(c3ccc([C@H](C)NC(=O)Cc4ccccn4)cc3)C2)cc1 [Example 1.81] | 2330
CC(=O)N[C@@H](C)c1ccc(N2CC(Oc3cccc(C4CC4)n3)C2)cc1 [Example 12.10] | 450
CCOc1ccc(OC2CN(c3ccc([C@H](C)NC(=O)c4sc(C)nc4C)cc3)C2)cc1 [Example 1.76] | 1000
CCc1cccc(OC2CN(c3ccc([C@H](C)NC(C)=O)cc3)C2)n1 [Example 12.11] | 330
CCOc1ccc(OC2CN(c3ccc([C@H](C)NC(=O)c4cnn(C)c4)cc3)C2)cc1 [Example 1.21] | 480
CCOc1ccc(OC2CN(c3ccc([C@H](C)NC(=O)c4ccncc4)cc3)C2)cc1 [Example 1.26] | 1230
CCOc1ccc(OC2CN(c3ccc([C@H](C)NC(=O)C4CC4C)cc3)C2)cc1 (stereo partly shown) [Example 1.9] | 460
CC(=O)N[C@@H](C)c1ccc(N2CC(Oc3cccc(OCC4CC4)n3)C2)cc1 [Example 12.2] | 1380
CCOc1ccc(OC2CN(c3ccc([C@H](C)NC(=O)c4cnon4)cc3)C2)cc1 [Example 1.84] | 730
CCOc1ccc(OC2CN(c3ccc([C@H](C)NC(=O)c4ccc(C)nc4)cc3)C2)cc1 [Example 1.64] | 2190

Structure (SMILES) | IC50 [nM]
CCOc1ccc(OC2CN(c3ccc([C@H](C)NC(=O)c4ccoc4C)cc3)C2)cc1 [Example 2.3] | 820
CCOc1ccc(OC2CN(c3ccc([C@H](C)NC(=O)c4conc4C)cc3)C2)cc1 [Example 1.14] | 70
CC(=O)N[C@@H](C)c1ccc(N2CC(Oc3ccccc3)C2)cc1 [Example 10.12] | 790
CC(=O)N[C@@H](C)c1ccc(N2CC(Oc3ccnc(OCC4CC4)c3)C2)cc1 [Example 11.1, (S)—N-(1-{4-[3-(2-Cyclopropylmethoxy-pyridin-4-yloxy)-azetidin-1-yl]-phenyl}-ethyl)-acetamide] | 80
CCC(=O)N[C@@H](C)c1ccc(N2CC(Oc3ccc(OCC4CC4)cc3)C2)cc1 [Example 1.88] | 100
CCOc1ccc(OC2CN(c3ccc([C@H](C)NC(=O)CC)cc3)C2)cc1 [Example 1.2] | 150
CC(=O)N[C@@H](C)c1ccc(N2CC(Oc3ccc(Cl)cc3F)C2)cc1 [Example 10.16] | 2230
CCOc1ccc(OC2CN(c3ccc([C@H](C)NC(=O)N(C)CCOC)cc3)C2)cc1 [Example 4.8] | 1390
C[C@H](NC(=O)CC#N)c1ccc(N2CC(Oc3ccc(OCC4CC4)cc3)C2)cc1 [Example 1.87] | 200
CCOc1ccc(OC2CN(c3ccc([C@H](C)NC(=O)c4cccnc4)cc3)C2)cc1 [Example 1.27] | 1950
CCOc1ccc(OC2CN(c3ccc([C@H](C)NC(=O)c4sc(NC(C)=O)nc4-c4ccccc4)cc3)C2)cc1 [Example 1.66] | 550
CCOc1ccc(OC2CN(c3ccc([C@H](C)NC(=O)C4(C#N)CC4)cc3)C2)cc1 [Example 1.18] | 340
CCOc1ccc(OC2CN(c3ccc([C@H](C)NC(=O)c4cc(C)oc4C)cc3)C2)cc1 [Example 2.1, (S)-2,5-Dimethyl-furan-3-carboxylic acid (1-{4-[3-(4-ethoxy-phenoxy)-azetidin-1-yl]-phenyl}-ethyl)-amide] | 1530
CCOc1ccc(OC2CN(c3ccc([C@H](C)NC(=O)C4CC=CC4)cc3)C2)cc1 [Example 1.51] | 70
CCOc1ccc(OC2CN(c3ccc([C@H](C)NC(=O)c4ccc(C)c(NC(C)=O)c4)cc3)C2)cc1 [Example 1.69] | 3150
CC(=O)NC(C)c1ccc(N2CC(Oc3ccnc(OCC(F)F)c3)C2)cc1 (stereo not shown) [Example 11.6] | 150
CC(=O)N[C@@H](C)c1ccc(N2CC(Oc3ccc(C(F)(F)F)cn3)C2)cc1 [Example 8.8, (S)—N-(1-{4-[3-(5-Trifluoromethyl-pyridin-2-yloxy)-azetidin-1-yl]-phenyl}-ethyl)-acetamide] | 810
CCOc1ccc(OC2CN(c3ccc([C@H](C)NC(=O)C4(C)CC4)cc3)C2)cc1 [Example 1.12] | 230
